Measured values reported in the NIST ThermoML archive (doi:10.1016/j.jct.2018.11.011).
Several values for one entry are separate records, joined by “and”; a condition that tells them apart may be missing. Identical values can stand only once.

Experiment: molar heat capacity at constant pressure
Conditions: 101.33 kPa

O=C([O][Sb]([c]1ccccc1)([c]1ccccc1)([c]1ccccc1)[c]1ccccc1)c1ccccc1 [tetraphenylantimony benzoate]
Conditions	molar heat capacity at constant pressure
175 K, Crystal, Small (less than 1 g) adiabatic calorimetry	350 J/K/mol
179.52 K, Crystal, Small (less than 1 g) adiabatic calorimetry	354.2 J/K/mol
180 K, Crystal, Small (less than 1 g) adiabatic calorimetry	355.4 J/K/mol
182.77 K, Crystal, Small (less than 1 g) adiabatic calorimetry	359.3 J/K/mol
187 K, Crystal, Small (less than 1 g) adiabatic calorimetry	368 J/K/mol
190 K, Crystal, Small (less than 1 g) adiabatic calorimetry	372 J/K/mol
193.46 K, Crystal, Small (less than 1 g) adiabatic calorimetry	377.4 J/K/mol
196.73 K, Crystal, Small (less than 1 g) adiabatic calorimetry	382.6 J/K/mol
200 K, Crystal, Small (less than 1 g) adiabatic calorimetry	387 J/K/mol and 387.6 J/K/mol
203.22 K, Crystal, Small (less than 1 g) adiabatic calorimetry	393.1 J/K/mol
206.89 K, Crystal, Small (less than 1 g) adiabatic calorimetry	398.7 J/K/mol
210 K, Crystal, Small (less than 1 g) adiabatic calorimetry	402 J/K/mol
212.74 K, Crystal, Small (less than 1 g) adiabatic calorimetry	408.9 J/K/mol
216.41 K, Crystal, Small (less than 1 g) adiabatic calorimetry	416 J/K/mol
218 K, Crystal, Small (less than 1 g) adiabatic calorimetry	417 J/K/mol
220 K, Crystal, Small (less than 1 g) adiabatic calorimetry	420.9 J/K/mol
221.7 K, Crystal, Small (less than 1 g) adiabatic calorimetry	424.2 J/K/mol
226.59 K, Crystal, Small (less than 1 g) adiabatic calorimetry	431.9 J/K/mol
230.26 K, Crystal, Small (less than 1 g) adiabatic calorimetry	438 J/K/mol
233.93 K, Crystal, Small (less than 1 g) adiabatic calorimetry	444.7 J/K/mol
237.6 K, Crystal, Small (less than 1 g) adiabatic calorimetry	451.8 J/K/mol
240 K, Crystal, Small (less than 1 g) adiabatic calorimetry	455.1 J/K/mol
241.26 K, Crystal, Small (less than 1 g) adiabatic calorimetry	457.5 J/K/mol
244.92 K, Crystal, Small (less than 1 g) adiabatic calorimetry	464.4 J/K/mol
248.56 K, Crystal, Small (less than 1 g) adiabatic calorimetry	469.4 J/K/mol
252.2 K, Crystal, Small (less than 1 g) adiabatic calorimetry	476.9 J/K/mol
255.84 K, Crystal, Small (less than 1 g) adiabatic calorimetry	483.2 J/K/mol
259.46 K, Crystal, Small (less than 1 g) adiabatic calorimetry	489.4 J/K/mol
260 K, Crystal, Small (less than 1 g) adiabatic calorimetry	491.6 J/K/mol
260.21 K, Crystal, Small (less than 1 g) adiabatic calorimetry	492.1 J/K/mol
263.38 K, Crystal, Small (less than 1 g) adiabatic calorimetry	496.3 J/K/mol
266.99 K, Crystal, Small (less than 1 g) adiabatic calorimetry	503.4 J/K/mol
270.59 K, Crystal, Small (less than 1 g) adiabatic calorimetry	511.1 J/K/mol
273.15 K, Crystal, Small (less than 1 g) adiabatic calorimetry	514.4 J/K/mol
274.19 K, Crystal, Small (less than 1 g) adiabatic calorimetry	516.9 J/K/mol
277.77 K, Crystal, Small (less than 1 g) adiabatic calorimetry	523.1 J/K/mol
280 K, Crystal, Small (less than 1 g) adiabatic calorimetry	527.1 J/K/mol
281.34 K, Crystal, Small (less than 1 g) adiabatic calorimetry	529.8 J/K/mol
284.91 K, Crystal, Small (less than 1 g) adiabatic calorimetry	536.8 J/K/mol
288.45 K, Crystal, Small (less than 1 g) adiabatic calorimetry	544.3 J/K/mol
291.98 K, Crystal, Small (less than 1 g) adiabatic calorimetry	551.8 J/K/mol
295.51 K, Crystal, Small (less than 1 g) adiabatic calorimetry	558.6 J/K/mol
298.15 K, Crystal, Small (less than 1 g) adiabatic calorimetry	564.4 J/K/mol
299.02 K, Crystal, Small (less than 1 g) adiabatic calorimetry	565.4 J/K/mol
300 K, Crystal, Small (less than 1 g) adiabatic calorimetry	568.4 J/K/mol
302.51 K, Crystal, Small (less than 1 g) adiabatic calorimetry	572.4 J/K/mol
305.98 K, Crystal, Small (less than 1 g) adiabatic calorimetry	579.5 J/K/mol
309.1 K, Crystal, Small (less than 1 g) adiabatic calorimetry	585.3 J/K/mol
312.86 K, Crystal, Small (less than 1 g) adiabatic calorimetry	594.4 J/K/mol
316.25 K, Crystal, Small (less than 1 g) adiabatic calorimetry	601.1 J/K/mol
319.65 K, Crystal, Small (less than 1 g) adiabatic calorimetry	610.9 J/K/mol
320 K, Crystal, Small (less than 1 g) adiabatic calorimetry	611.4 J/K/mol
321.5 K, Crystal, DSC	615 J/K/mol
323.03 K, Crystal, Small (less than 1 g) adiabatic calorimetry	617.6 J/K/mol
324.5 K, Crystal, DSC	621 J/K/mol
326.38 K, Crystal, Small (less than 1 g) adiabatic calorimetry	625.6 J/K/mol
327.5 K, Crystal, DSC	627 J/K/mol
329.73 K, Crystal, Small (less than 1 g) adiabatic calorimetry	632 J/K/mol
330.5 K, Crystal, DSC	634 J/K/mol
333.07 K, Crystal, Small (less than 1 g) adiabatic calorimetry	638.8 J/K/mol
333.5 K, Crystal, DSC	639 J/K/mol
336.5 K, Crystal, DSC	645 J/K/mol
337.11 K, Crystal, Small (less than 1 g) adiabatic calorimetry	646.4 J/K/mol
339.5 K, Crystal, DSC	649 J/K/mol
340 K, Crystal, Small (less than 1 g) adiabatic calorimetry	650 J/K/mol
342.5 K, Crystal, DSC	656 J/K/mol
345.5 K, Crystal, DSC	660 J/K/mol
348.5 K, Crystal, DSC	666 J/K/mol
351.5 K, Crystal, DSC	671 J/K/mol
354.5 K, Crystal, DSC	678 J/K/mol
357.5 K, Crystal, DSC	683 J/K/mol
360 K, Crystal, Small (less than 1 g) adiabatic calorimetry	688 J/K/mol
360.5 K, Crystal, DSC	689 J/K/mol
368.5 K, Crystal, DSC	709 J/K/mol
377.2 K, Crystal, DSC	731 J/K/mol
380 K, Crystal, Small (less than 1 g) adiabatic calorimetry	736 J/K/mol
387.3 K, Crystal, DSC	755 J/K/mol
397.5 K, Crystal, DSC	780 J/K/mol
400 K, Crystal, Small (less than 1 g) adiabatic calorimetry	788 J/K/mol
402.5 K, Crystal, DSC	793 J/K/mol
405.5 K, Crystal, DSC	800 J/K/mol
408.5 K, Crystal, DSC	806 J/K/mol
411.5 K, Crystal, DSC	830 J/K/mol
420 K, Crystal, Small (less than 1 g) adiabatic calorimetry	800 J/K/mol
437.5 K, Crystal, Small (less than 1 g) adiabatic calorimetry	873 J/K/mol
437.5 K, Liquid, DSC	973 J/K/mol
440 K, Liquid, DSC	973 J/K/mol
445.5 K, Liquid, DSC	989 J/K/mol
447.5 K, Liquid, DSC	981 J/K/mol
450.5 K, Liquid, DSC	973 J/K/mol
453.5 K, Liquid, DSC	973 J/K/mol
456.5 K, Liquid, DSC	973 J/K/mol
459.5 K, Liquid, DSC	973 J/K/mol
460 K, Liquid, DSC	973 J/K/mol
462.5 K, Liquid, DSC	973 J/K/mol
465.5 K, Liquid, DSC	973 J/K/mol
468.5 K, Liquid, DSC	973 J/K/mol
471.5 K, Liquid, DSC	973 J/K/mol
474.5 K, Liquid, DSC	973 J/K/mol
477.5 K, Liquid, DSC	973 J/K/mol
480 K, Liquid, DSC	973 J/K/mol
480.5 K, Liquid, DSC	973 J/K/mol
